According to patent US6756376B1, “Tricyclic azaindolizine derivatives having an sPLA2-inhibitory activities” (Shionogi & Co., Ltd., priority 1999, dated 2004):

What was measured:
[1] = biological target: T1, human type X sPLA2 (Homo sapiens, UniProt O15496); test: Inhibition test of human secretory phospholipase A2, chromogenic assay, Type X enzyme; type: biochemical; conditions: human type X enzyme (CHO supernatant) 15 μl/well, absorbance change 30 min, OD 405 nm
T1 construct: made in house; unpurified culture supernatant used
T1 sequence (O15496 43-165): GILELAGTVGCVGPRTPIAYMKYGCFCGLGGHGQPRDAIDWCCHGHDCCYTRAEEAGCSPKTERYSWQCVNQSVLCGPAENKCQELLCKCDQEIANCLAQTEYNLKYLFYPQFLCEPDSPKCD
From the text: (§1) In order to identify and evaluate an inhibitor of recombinant human secretory phospholipase A2, the following chromogenic assay is utilized. The assay herein has been applied for high volume screening wherein 96 well microtiterplate is used. A general explanation for such assay is described in “Analysis of Human Synovial Fluid Phospholipase A2 on Short Chain Phosphatidylcholine-Mixed Micelles: Development of a Spectrophotometric Assay Suitable for a Micortiterplate Reader” (Analytical Biochemistry, 204, pp 190-197, 1992 by Laure. J. Reynolds. Lori L. Hughes and Edward A. Dennis: the disclosure of which is incorporated herein for reference. Type V and Type X enzymes: cDNA sequences encoding human type V and Type X sPLA2 (Chen et., al., J. Biol. Chem., 1994. 269, 2365-2368 and Cupillard et., al., J. Biol. Chem., 1997, 272, 15745-15762) were inserted into downstream of promoter of pSVL SV40 Late Promoter Expression Vector (Amersham Pharmacia Biotech K. K.), mammalian cell expression vector, forwardly. The recombinant expression vectors were transfected into CHO host cells by LipofectAMINE regent (Gibco BRL.) according to the attached manual and the cells expressed each of human type V and type X sPLA2 stably. After each expressing cells were cultured in σ-MEM medium including 10% fetal serum albumin for 3 days, the cells supernatant were collected and measured enzymatic activity. 1) 0.106 ml of the substrate solution is put in a centrifugal tube, and nitrogen gas is jetted to remove the solvent. 0.54 ml of Triton-X 100 is added thereto, the mixture is stirred, thereafter it is sonified in a bath type sonification to dissolve. To the resulting product are added 17.8 ml of the reaction buffer and 0.46 ml of DTNB, and 0.18 ml each of the admixture is poured to wells of the 96 well microtiterplate. 2) 10 μl of a test compound (or solvent blank) are added in accordance with alignment of plates which has been previously set. 3) Incubation is effected at 40° C. for 15 minutes. 4) 90 ng/well in case of human type I enzyme, 50 ng/well in case of human type II enzyme, 40 μl/well in case of human type V enzyme, 15 μl/well in case of human type X enzyme were reacted. 5) Changes in absorbancy for 30 minutes for humane type I, type II, and type X enzyme and for 45 min for human type V enzyme, are measured by a plate reader, and inhibition activity was calculated (OD: 405 nm). 6) IC50 was determined by plotting log concentration with respect to inhibition values within 10% to 90% inhibiting range.

[2] = biological target: human type I sPLA2 (Homo sapiens, UniProt P04054); test: Inhibition test of human secretory phospholipase A2, chromogenic assay, Type I enzyme; type: biochemical; conditions: human type I enzyme 90 ng/well, absorbance change 30 min, OD 405 nm
From the text: (§2) In order to identify and evaluate an inhibitor of recombinant human secretory phospholipase A2, the following chromogenic assay is utilized. The assay herein has been applied for high volume screening wherein 96 well microtiterplate is used. A general explanation for such assay is described in “Analysis of Human Synovial Fluid Phospholipase A2 on Short Chain Phosphatidylcholine-Mixed Micelles: Development of a Spectrophotometric Assay Suitable for a Micortiterplate Reader” (Analytical Biochemistry, 204, pp 190-197, 1992 by Laure. J. Reynolds. Lori L. Hughes and Edward A. Dennis: the disclosure of which is incorporated herein for reference.
Type I enzyme: sPLA2 solution (330 ng/μl) (described in A. Kanda et. al., Biochimica et Biophysica Acta. 1171 (1992) 1-10) is dissolved in the assay (enzyme solution 27 μl is diluted with 1973 μl of the reaction buffer).
(§3) 1) 0.106 ml of the substrate solution is put in a centrifugal tube, and nitrogen gas is jetted to remove the solvent. 0.54 ml of Triton-X 100 is added thereto, the mixture is stirred, thereafter it is sonified in a bath type sonification to dissolve. To the resulting product are added 17.8 ml of the reaction buffer and 0.46 ml of DTNB, and 0.18 ml each of the admixture is poured to wells of the 96 well microtiterplate.
(§4) 2) 10 μl of a test compound (or solvent blank) are added in accordance with alignment of plates which has been previously set.
(§5) 3) Incubation is effected at 40° C. for 15 minutes.
(§6) 4) 90 ng/well in case of human type I enzyme, 50 ng/well in case of human type II enzyme, 40 μl/well in case of human type V enzyme, 15 μl/well in case of human type X enzyme were reacted.
(§7) 5) Changes in absorbancy for 30 minutes for humane type I, type II, and type X enzyme and for 45 min for human type V enzyme, are measured by a plate reader, and inhibition activity was calculated (OD: 405 nm).
(§8) 6) IC50 was determined by plotting log concentration with respect to inhibition values within 10% to 90% inhibiting range.

[3] = biological target: T2, human type V sPLA2 (Homo sapiens, UniProt P39877); test: Inhibition test of human secretory phospholipase A2, chromogenic assay, Type V enzyme; type: biochemical; conditions: human type V enzyme (CHO supernatant) 40 μl/well, absorbance change 45 min, OD 405 nm
T2 construct: made in house; unpurified culture supernatant used
T2 sequence (P39877 21-138): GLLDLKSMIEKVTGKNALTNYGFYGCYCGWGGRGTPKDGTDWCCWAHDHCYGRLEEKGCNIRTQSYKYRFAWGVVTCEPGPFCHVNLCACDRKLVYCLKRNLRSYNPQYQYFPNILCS
From the text: as §1

[4] = biological target: T3, human type II sPLA2 (Homo sapiens, UniProt P14555); test: Inhibition test of human secretory phospholipase A2, chromogenic assay, Type II enzyme; type: biochemical; conditions: human type II enzyme 50 ng/well, absorbance change 30 min, OD 405 nm
T3 sequence (P14555 21-144): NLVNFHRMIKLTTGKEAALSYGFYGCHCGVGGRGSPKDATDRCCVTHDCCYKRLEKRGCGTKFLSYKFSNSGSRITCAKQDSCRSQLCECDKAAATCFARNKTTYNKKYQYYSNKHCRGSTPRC
From the text: as §2
Type II enzyme: 1 mg of sPLA2 is dissolved in 1 ml of an enzyme buffer. Thereafter, the solution is maintained at 4° C. In the assay, 5 >l of the solution is diluted with 1995 μl of the reaction buffer to be used.
as §3, §4, §5, §6, §7, §8

human type I sPLA2, sequence (P04054 23-148): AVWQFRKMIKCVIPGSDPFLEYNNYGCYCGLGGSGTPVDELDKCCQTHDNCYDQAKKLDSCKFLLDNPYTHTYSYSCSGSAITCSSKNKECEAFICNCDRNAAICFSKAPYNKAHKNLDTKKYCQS

Structure (SMILES) | IC50 [1] [nM] | melting point | IC50 [2] [nM] | IC50 [3] [nM] | IC50 [4] [nM]
Cc1cc(OCC(=O)O)c2c3c(c(Cc4ccccc4)n2n1)CCC=C3C(N)=O [Compound I-1] | 4 | 256 to 258 °C (dec.) | 170 | 2 | 7
Cc1cc(OC(C)C(=O)O)c2c3c(c(Cc4ccccc4)n2n1)CCC=C3C(N)=O (stereo not drawn) [Compound I-2] | 4 |  | 79 | 3 | 15
Cc1ccc(Cc2c3c(c4c(OCC(=O)O)cc(C)nn24)C(C(N)=O)=CCC3)cc1 [Compound I-3] | 10 |  | 460 | 2 | 11
Cc1ccc(Cc2c3c(c4c(OC(C)C(=O)O)cc(C)nn24)C(C(N)=O)=CCC3)cc1 (stereo not drawn) [Compound I-4] | 7 |  | 139 | 2 | 21
Cc1cc(OCC(=O)O)c2c3c(c(Cc4ccc(Cl)cc4)n2n1)CCC=C3C(N)=O [Compound I-5] | 6 |  | 147 | 1 | 8
Cc1cc(OC(C)C(=O)O)c2c3c(c(Cc4ccc(Cl)cc4)n2n1)CCC=C3C(N)=O (stereo not drawn) [Compound I-6] | 5 |  | 86 | 1 | 17
COc1cccc(Cc2c3c(c4c(OCC(=O)O)cc(C)nn24)C(C(N)=O)=CCC3)c1 [Compound I-7] | 16 |  | 215 | 2 | 10
COc1cccc(Cc2c3c(c4c(OC(C)C(=O)O)cc(C)nn24)C(C(N)=O)=CCC3)c1 (stereo not drawn) [Compound I-8] | 12 |  | 76 | 2 | 23
NC(=O)C1=CCCc2c1c1c(OCC(=O)O)cc(-c3ccccc3)nn1c2Cc1ccccc1 [Compound I-9] | 1 |  | 51 | 0.2 | 8
COc1cccc(Cc2c3c(c4c(OCC(=O)O)cc(-c5ccccc5)nn24)C(C(N)=O)=CCC3)c1 [Compound I-10] | 2 |  | 49 | 0.2 | 6
Cc1cn2c(Cc3ccccc3)c3c(c2c(OCC(=O)O)n1)C(C(N)=O)=CCC3 [Compound I-11] | 6 |  | 234 | 1 | 9
NC(=O)C1=CCCc2c1c1c(OCC(=O)O)nccn1c2Cc1ccccc1 [Compound I-12] | 4 |  | 86 | 2 | 8
Cc1cn2c(Cc3ccccc3)c3c(c2c(OC(C)C(=O)O)n1)C(C(N)=O)=CCC3 (stereo not drawn) [Compound I-13] | 7 |  | 93 | 4 | 19
Cc1cn2c(CC3CCCCC3)c3c(c2c(OC(C)C(=O)O)n1)C(C(N)=O)=CCC3 (stereo not drawn) [Compound I-14] | 1 |  | 57 | 1 | 14
